Patent publication US20250134855A1, “CO[…] AND METHODS OF USING SAME” (LYKOS THERAPEUTICS, INC., priority 2022, published 2025)

Assays:
[1] = target: OATP1B1 (Homo sapiens, UniProt Q9Y6L6); experiment: Transporter substrate assessment, OATP1B1
[2] = test system: participants with severe PTSD; experiment: MAPP1 Phase 3: CAPS-5 total severity score; type: in vivo, human; conditions: for CFB in CAPS-5 Total Severity Score, LS mean for treatment difference (95% CI) / CFB in CAPS-5 Total Severity Score, LS mean / CAPS-5 Total Severity Score, Mean / CAPS-5 Total Severity Score, Median / CFB in CAPS-5 Total Severity Score, Mean / CFB in CAPS-5 Total Severity Score, Median / Loss of Diagnosis, % / Non-Responder (<10-point reduction in CAPS-5 Total Severity Score), % / Remission, % / Responder (≥10-point reduction in CAPS-5 Total Severity Score), %: MAPP1, mITT; for CFB in CAPS-5 Total Severity Score, LS mean for treatment difference (95% CI): vs placebo with therapy
Text: FIG. 36 and FIG. 37 show the time course of improvement in Clinician Administered PTSD Scale for DSM-5 (CAPS-5) total severity score versus placebo. Each show a treatment difference between MDMA and placebo after 3 medication sessions with psychological intervention. […] Between the second and third treatment sessions, the difference between the groups appeared to continue to increase in both studies. The primary efficacy measure was change from baseline in the CAPS-5 total severity score at 18 weeks, which was evaluated 2 months after the final dosing session. The CAPS-5 is a 30-item, clinician-rated scale used to assess severity of PTSD symptoms and diagnostic status according to DSM-5 criteria, as described herein. Scores on the CAPS 5 range from 0 to 80, with higher scores indicating more severe PTSD symptoms. In both studies, a secondary efficacy measure was change from baseline in Sheehan Disability Scale (SDS) mean item scores at 18 weeks. The modified SDS is a 3-item, clinician-rated scale measuring the degree of functional impairment in work, family, and social life. Scores on the SDS mean items range from 0 to 10, with higher scores indicating more functional impairment. In these studies, the efficacy assessments were administered by blinded independent raters 18 to 30 days after medication sessions 1 and 2.
A flexible dose of MDMA hydrochloride salt (referred to as MDMA throughout) or placebo, followed by a supplemental half-dose unless contraindicated, was administered during the Treatment Period with manualized psychotherapy in three blinded monthly Experimental Sessions. This ˜12-week Treatment Period was preceded by three Preparatory Sessions. During the Treatment Period, each Experimental Session was followed by three Integrative Sessions of non-drug psychotherapy. Experimental Sessions were followed by an overnight stay. The Primary Outcome measure, the change in Clinician Administered PTSD Scale (CAPS-5), was assessed by a blinded centralized Independent Rater (IR) pool multiple times throughout the study. Three blinded manualized Experimental Sessions of psychotherapy assisted by flexible doses of MDMA·HCl or placebo were administered (see Table 28 below). Initial doses per Experimental Session include 80 mg or 120 mg MDMA compounded with mannitol and magnesium stearate or indistinguishable weight placebos comprised entirely of mannitol and magnesium stearate, followed 1.5 to 2 hours later by a supplemental half-dose (40 mg or 60 mg MDMA·HCl or placebo). Total amounts of MDMA·HCl to be administered per Experimental Session range from 80 mg to 180 mg. All drug is encapsulated with HPMC capsules.
In the first Experimental Session, the initial dose was 80 mg MDMA·HCl or placebo. In the second and third Experimental Sessions, the initial dose may be increased to 120 mg MDMA·HCl or placebo unless contraindicated. The choice of whether to keep the dose the same or change it from the first Experimental Session was made by the therapy team the in consultation with the site physician based on observed response, tolerability to the previously administered dose, and discussion with the participant. In each Experimental Session, 1.5 to 2 hours after the initial dose is given, the participant was administered a supplemental half-dose unless contraindicated. If an AE requiring medical attention occurs between the initial and supplemental dose this was evaluated as a potential contraindication by the site physician. If a participant prefers not to take the supplemental dose, the reason was documented. Participants will not know if they have been assigned MDMA or placebo but can indicate if they want the dose to change or remain the same.
The MDMA assisted therapy (MDMA-AT) approach is detailed in the “Manual for MDMA Assisted Therapy in the Treatment of PTSD,” published by MAPS (MDMA Treatment Manual, available at maps.org/treatment-manual). […]

[3] = target: BCRP (Homo sapiens, UniProt Q9UNQ0); experiment: Transporter substrate assessment, BCRP; conditions: not told
BCRP, sequence (Q9UNQ0 whole entry): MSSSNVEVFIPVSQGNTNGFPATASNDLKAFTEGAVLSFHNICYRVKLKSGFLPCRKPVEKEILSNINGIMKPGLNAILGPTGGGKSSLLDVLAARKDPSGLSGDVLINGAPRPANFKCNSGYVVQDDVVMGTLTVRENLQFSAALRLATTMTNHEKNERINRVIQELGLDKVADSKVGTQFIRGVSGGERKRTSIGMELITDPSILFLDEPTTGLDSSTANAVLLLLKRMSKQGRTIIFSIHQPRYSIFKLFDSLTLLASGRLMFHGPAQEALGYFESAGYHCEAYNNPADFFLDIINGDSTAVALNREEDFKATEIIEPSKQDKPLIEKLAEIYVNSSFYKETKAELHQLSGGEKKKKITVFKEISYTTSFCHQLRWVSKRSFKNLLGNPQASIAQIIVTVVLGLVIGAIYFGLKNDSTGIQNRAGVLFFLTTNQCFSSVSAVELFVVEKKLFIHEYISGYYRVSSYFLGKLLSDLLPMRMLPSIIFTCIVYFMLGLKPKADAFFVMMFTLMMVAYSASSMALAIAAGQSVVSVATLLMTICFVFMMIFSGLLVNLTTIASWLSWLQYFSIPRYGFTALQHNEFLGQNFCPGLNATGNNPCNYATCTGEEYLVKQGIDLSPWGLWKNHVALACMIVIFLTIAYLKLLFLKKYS

[4] = de jure estimand, Baseline CAPS-5 T1 (Visit 3)
[5] = de jure estimand, CAPS-5 T2 (Visit 8)
[6] = de jure estimand, CAPS-5 T3 (Visit 13)
[7] = de jure estimand, CAPS-5 T4 (Visit 19)
[8] = de jure estimand, CFB to T2 (Visit 8)
[9] = de jure estimand, CFB to T3 (Visit 13)
[10] = de jure estimand, CFB to T4 (Visit 19)
[11] = T4 (primary) endpoint (Visit 19)

OATP1B1, sequence (Q9Y6L6 whole entry): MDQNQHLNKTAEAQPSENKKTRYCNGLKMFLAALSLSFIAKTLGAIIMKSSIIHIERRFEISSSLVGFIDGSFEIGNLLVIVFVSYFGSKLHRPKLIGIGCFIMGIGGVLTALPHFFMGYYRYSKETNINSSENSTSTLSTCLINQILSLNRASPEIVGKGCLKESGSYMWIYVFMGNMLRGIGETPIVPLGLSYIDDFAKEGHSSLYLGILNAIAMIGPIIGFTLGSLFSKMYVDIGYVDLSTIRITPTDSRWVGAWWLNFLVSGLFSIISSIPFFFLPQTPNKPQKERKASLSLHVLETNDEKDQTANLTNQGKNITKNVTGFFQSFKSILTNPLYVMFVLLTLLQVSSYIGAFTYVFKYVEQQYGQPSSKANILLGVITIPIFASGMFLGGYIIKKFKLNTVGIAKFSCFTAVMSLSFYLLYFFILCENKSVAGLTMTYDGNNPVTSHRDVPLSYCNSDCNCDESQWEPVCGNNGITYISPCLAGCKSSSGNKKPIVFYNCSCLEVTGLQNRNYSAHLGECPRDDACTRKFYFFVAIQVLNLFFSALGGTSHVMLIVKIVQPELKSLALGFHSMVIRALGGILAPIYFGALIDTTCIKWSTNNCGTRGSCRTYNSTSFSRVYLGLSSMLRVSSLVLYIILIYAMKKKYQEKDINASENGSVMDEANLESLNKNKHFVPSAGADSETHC

Question: With `CNC(C)Cc1ccc2c(c1)OCO2` (stereo not drawn) [MDMA, 3,4-methylenedioxymethamphetamine] as the molecule, how does the “substrate of OATP1B1” value [1] read?
Answer: not a substrate

Question: And the “onset of treatment efficacy (CAPS-5 versus placebo)” value ([2]; FIG. 36 and FIG. 37, both studies)?
Answer: after the second session

Question: And the “CFB in CAPS-5 Total Severity Score, LS mean for treatment difference (95% CI)” value (shortened to “CFB … for treatment difference (95% CI)”) ([2]; MMRM, T2 (Visit 8))?
Answer: −3.69 (−7.93, 0.54)

Question: What about the “CFB … for treatment difference (95% CI)” value ([2]; MMRM, T3 (Visit 13)) of the same molecule?
Answer: −8.41 (−13.53, −3.29)

Question: What about the “CFB … for treatment difference (95% CI)” value ([2]; MMRM, T4 (Visit 19)) of the same molecule?
Answer: −11.86 (−17.41, −6.32)

Question: And the “CFB in CAPS-5 Total Severity Score, LS mean” value ([2]; de jure estimand, MMRM, CFB to T2 (Visit 8))?
Answer: −10.40

Question: What about the “CFB in CAPS-5 Total Severity Score, LS mean” value ([2]; de jure estimand, MMRM, CFB to T3 (Visit 13)) of the same molecule?
Answer: −17.83

Question: And the “CFB in CAPS-5 Total Severity Score, LS mean” value ([2]; de jure estimand, MMRM, CFB to T4 (Visit 19))?
Answer: −24.50

Question: What about the “CAPS-5 Total Severity Score, Mean” value [2, 4] of the same molecule?
Answer: 44.0

Question: And the “CAPS-5 Total Severity Score, Median” value [2, 4]?
Answer: 43.5

Question: And the “CAPS-5 Total Severity Score, Mean” value [2, 5]?
Answer: 33.7

Question: And the “CAPS-5 Total Severity Score, Median” value [2, 5]?
Answer: 34.5

Question: What about the “CAPS-5 Total Severity Score, Mean” value [2, 6] of the same molecule?
Answer: 26.2

Question: And the “CAPS-5 Total Severity Score, Median” value [2, 6]?
Answer: 28.0

Question: What about the “CAPS-5 Total Severity Score, Mean” value [2, 7] of the same molecule?
Answer: 19.5

Question: What about the “CAPS-5 Total Severity Score, Median” value [2, 7] of the same molecule?
Answer: 18.5

Question: And the “CFB in CAPS-5 Total Severity Score, Mean” value [2, 8]?
Answer: −10.3

Question: What about the “CFB in CAPS-5 Total Severity Score, Median” value (“CFB … Median” for short) [2, 8] of the same molecule?
Answer: −9.0

Question: And the “CFB in CAPS-5 Total Severity Score, Mean” value [2, 9]?
Answer: −17.7

Question: What about the “CFB … Median” value [2, 9] of the same molecule?
Answer: −17.5

Question: And the “CFB in CAPS-5 Total Severity Score, Mean” value [2, 10]?
Answer: −24.4

Question: And the “CFB … Median” value [2, 10]?
Answer: −25.0

Question: And the “Loss of Diagnosis, %” value ([2]; T2 endpoint (Visit 8))?
Answer: (23.9) %

Question: What about the “Non-Responder (<10-point reduction in CAPS-5 Total Severity Score), %” value ([2]; T2 endpoint (Visit 8)) of the same molecule?
Answer: (54.3) %

Question: And the “Remission, %” value ([2]; T2 endpoint (Visit 8))?
Answer: (8.7) %

Question: What about the “Responder (≥10-point reduction in CAPS-5 Total Severity Score), %” value ([2]; T2 endpoint (Visit 8)) of the same molecule?
Answer: (45.7) %

Question: What about the “Loss of Diagnosis, %” value ([2]; T3 endpoint (Visit 13)) of the same molecule?
Answer: (57.1) %

Question: And the “Non-Responder (<10-point reduction in CAPS-5 Total Severity Score), %” value ([2]; T3 endpoint (Visit 13))?
Answer: (26.2) %

Question: And the “Remission, %” value ([2]; T3 endpoint (Visit 13))?
Answer: (11.9) %

Question: And the “Responder (≥10-point reduction in CAPS-5 Total Severity Score), %” value ([2]; T3 endpoint (Visit 13))?
Answer: (73.8) %

Question: What about the “Loss of Diagnosis, %” value [2, 11] of the same molecule?
Answer: (66.7) %

Question: And the “Non-Responder (<10-point reduction in CAPS-5 Total Severity Score), %” value [2, 11]?
Answer: (11.9) %

Question: And the “Remission, %” value [2, 11]?
Answer: (33.3) %

Question: And the “Responder (≥10-point reduction in CAPS-5 Total Severity Score), %” value [2, 11]?
Answer: (88.1) %

Question: And the “change from Baseline to Visit 19 in CAPS-5 total severity scores” value ([2]; MAPP1, MMRM, de jure estimand, mITT)?
Answer: −24.50

Question: What about the “no longer met PTSD diagnostic criteria” value ([2]; MAPP1, Visit 19) of the same molecule?
Answer: 66.7%

Question: What about the “remission (CAPS-5 ≤11 and no longer meeting PTSD diagnostic criteria)” value ([2]; MAPP1, Visit 19) of the same molecule?
Answer: 33.3%

Question: And the “responders (≥10-point reduction in CAPS-5 total severity score)” value ([2]; MAPP1, Visit 19)?
Answer: 88.1%

Question: And the “substrate of BCRP” value [3]?
Answer: not a substrate
